Experimental data: the NIST ThermoML archive (doi:10.1021/je101232g)

Conditions: Liquid

CCCCCCCCCCCCCC[P+](CCCCCC)(CCCCCC)CCCCCC.N#C[N-]C#N [tetradecyl(trihexyl)phosphonium dicyanamide]
mass density [kg/m3]
Conditions | 283.15 K | 293.15 K | 303.15 K | 313.15 K | 323.15 K | 333.15 K
100 kPa | 907.5 | 901.7 | 895.9 | 890.2 | 884.3 | 878.6
1000 kPa | 908 | 902.1 | 896.4 | 890.6 | 884.8 | 879.2
2000 kPa | 908.4 | 902.6 | 896.9 | 891.2 | 885.4 | 879.7
3000 kPa | 908.9 | 903.1 | 897.4 | 891.6 | 885.9 | 880.2
4000 kPa | 909.3 | 903.5 | 897.9 | 892.1 | 886.5 | 880.8
5000 kPa | 909.8 | 904 | 898.3 | 892.7 | 887 | 881.3
10000 kPa | 912.1 | 906.3 | 900.7 | 895.1 | 889.5 | 884
15000 kPa | 914.3 | 908.5 | 903 | 897.5 | 892 | 886.6
20000 kPa | 916.2 | 910.7 | 905.3 | 899.9 | 894.4 | 889.1
25000 kPa | 918.3 | 912.8 | 907.5 | 902.1 | 896.7 | 891.4
30000 kPa | 920.3 | 914.9 | 909.6 | 904.3 | 899 | 893.9
35000 kPa | 922.2 | 916.9 | 911.6 | 906.5 | 901.4 | 896.2
40000 kPa | 924.2 | 918.9 | 913.7 | 908.5 | 903.4 | 898.3
45000 kPa | 926.1 | 920.9 | 915.7 | 910.7 | 905.6 | 900.5
